# According to patent US10364470B2, “Long non-coding RNA expressed in aggressive cancer” (The Regents of the University of California, priority 2014, dated 2019):
# Experiments:
# Assay type in all cases: cell-based, human
# SAILOR = SAILOR knockdown with shRNA in BT549 cell lines
# Source text: (§1) The effect of SAILOR on the growth rate of BT549 cells was studied. SAILOR expression was reduced by ˜80% in BT549 cell lines with a short-hairpin RNA (shRNA), 5′-[…]-3′ (SEQ ID NO:14), which targets SAILOR exon 4 at sequence […] (SEQ ID NO:15) (FIG. 5).
# SATB1 = SATB1 transcription or protein level after SAILOR knockdown; conditions: BT549 cells
# BT549 cells = experiment: Growth rate of BT549 cells after SAILOR knockdown
# Source text: as §1
substance,measurement,setting,value
5′-GGTGGAAGAGTAAACTGTTCCCGAAGGAACAGTTTACTCTTCCACC-3′ (expressed or natural sequence) [shRNA],SAILOR expression reduced (knock down),SAILOR,~80%
same,effect of reduced SAILOR levels on SATB1 transcription or protein level,SATB1,did not affect
same,growth rate of SAILOR knockdown cells,BT549 cells,slowed growth rate
